Assays:
Assay in all cases: HIV-1 RT Assay
[1] = target: T1, Gag-Pol polyprotein [588-1027,K690N]/[588-1147,K690N] (Human immunodeficiency virus 1, UniProt P04585, K690N)
T1 construct: 588-1027; 588-1147

[2] = target: T2, Gag-Pol polyprotein [588-1027]/[588-1147] (Human immunodeficiency virus 1, UniProt P04585)
T2 construct: 588-1027; 588-1147

[3] = target: T3, Gag-Pol polyprotein [588-1127,Y768C]/[588-1147,Y768C] (Human immunodeficiency virus 1, UniProt P04585, Y768C)
T3 construct: 588-1127; 588-1147

Row | SMILES | IC50 ([1]; pH 7.8, 37 °C) [nM] | IC50 ([2]; pH 7.8, 37 °C) [nM] | IC50 [1] [nM] | further results
1 | CN(C)c1ccc(F)c(CCNC(=O)Nc2ccc(Br)cn2)c1F | > 2500 | 25 |  | 
2 | CCOc1ccc(F)c(CCNC(=O)Nc2ccc(Br)cn2)c1Cl | > 2400 | 4 |  | 
3 | COc1ccc(OC)c(CCNC(=O)Nc2ccc(Cl)cn2)c1F [1-(5-chloropyridin-2-yl)-3-[2-(2-fluoro-3,6-dimethoxyphenyl)ethyl]urea] |  | 3 |  | 
4 | COc1c(C(C)=O)ccc(F)c1CCNC(=O)Nc1ccc(Cl)cn1 [1-(5-chloropyridin-2-yl)-3-[2-(3-acetyl-6-fluoro-2-methoxyphenyl)ethyl]urea] | > 2700 |  |  | 
5 | COc1ccc(C(C)=O)c(F)c1CCNC(=O)Nc1ccc(Cl)cn1 [N-[2-(3-Acetyl-2-fluoro-6-methoxyphenethyl)]-N-[2-(5-chloropyridy)]urea] | > 2700 |  |  | 
6 | O=C(Nc1ccc(Cl)cn1)NC1CC1c1c(F)ccc(O)c1Cl (stereo not drawn) [N-[cis-2-(2-Chloro-6-fluoro-3-hydroxyphenyl)cyclopropyl]-N-[2-(5-chloropyridyl)]urea] |  |  | > 2700 | 
7 | CCC(=O)c1ccc(F)c(C2CC2NC(=O)Nc2ccc(C#N)cn2)c1O (stereo not drawn) [N-[cis-2-(6-Fluoro-2-hydroxy-3-propionylphenyl)cyclopropyl]-N-[2-(5-cyanopyridyl)]urea] |  |  | 97 | 
8 | COc1ccc2c(c1)N(C(=O)OC(C)C)[C@@H](CSC)C(=S)N2 [propan-2-yl (2S)-7-methoxy-2-[(methylsulfanyl)methyl]-3-sulfanylidene-1,2,3,4-tetrahydroquinoxaline-1-carboxylate] |  |  | 56 | IC50 [3]: 9 nM; IC50 [2]: 8 nM
